From the METLIN SMRT retention time set (Domingo-Almenara et al. 2019)

Test: gradient 5% acetonitrile 3 min, to 50% in 2 min, to 85% in 15 min, held 3 min, 100 µL/min
Conditions: column: Zorbax Extend-C18 2.1 x 50 mm; eluents: water / acetonitrile, 0.1% formic acid
Method in brief: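 In both positive and negative ionization mode, a quadrupole time-of-flight mass spectrometer coupled to HPLC analyzed pure standards run in mixtures of ~100 molecules. The Zorbax Extend-C18 column (2.1 × 50 mm, 1.8 μm) was operated at 100 μL/min with water and acetonitrile, each containing 0.1% formic acid. The dead volume was 40 μL and the dwell volume 900 μL. Retention time came from adduct peaks that were computationally picked and individually inspected by hand.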

Row | RP-LC retention time | Structure (SMILES)
1 | 764 s | CN1C(=O)C2(CCN(C(=O)c3ccc(F)cc3)C2)c2ccccc21 (centres undefined)
2 | 817 s | COc1ccc(C(=O)N(Cc2cc(OC)c(OC)c(OC)c2)C2CCS(=O)(=O)C2)cc1Cl (centres undefined)
3 | 845 s | CCOc1ccccc1NC(=O)Nc1nnc(Cc2ccccc2)o1
4 | 928 s | Cc1ccc(-c2cn3c(CC(=O)NCCc4ccccc4)csc3n2)cc1C
5 | 555 s | Cc1cc(C)c2c(N3CCOCC3)nc(C(=O)NCCN3CCCCCC3)nc2n1
6 | 1020 s | COc1ccccc1N1CCN(c2cc(SCC(=O)NC(C)CCc3ccccc3)ncn2)CC1 (centres undefined)
7 | 1310 s | CCN(CC)c1nc2cc(C(=O)OC)ccc2c(=O)n1Cc1ccc(C)cc1
8 | 1210 s | Cn1cc(-c2nc(C(=O)Nc3ccc(F)cc3Cl)cs2)c2cccnc21
9 | 622 s | Cn1cc(C(=O)N2CCCCCCNC(=O)[C@@H]3CCC[C@@H]32)cn1
10 | 1260 s | CCCCCn1c(=O)c2ccccc2n(Cc2nc(-c3ccccc3Cl)no2)c1=O
11 | 982 s | Cc1ccccc1NC(=O)N1CCC2(CC1)Nc1ccccc1-n1cccc12
12 | 1030 s | Cc1ccc(NC(=O)c2cc(C)n3nccc3n2)cc1C
13 | 717 s | Cc1ccc(-n2nc3c(=O)n(CCCC(=O)NC4CC4)nc(C)c3c2C)cc1
14 | 798 s | O=C(NC1CCCCC1)c1ncoc1-c1ccccc1C(=O)N1CCCC1
15 | 991 s | COc1ccccc1-c1nnc(SCc2cccc(C(F)(F)F)c2)o1
16 | 766 s | O=C(Cn1cccc1-c1nnc(C2CCC2)o1)NCCc1ccc(Cl)cc1
17 | 844 s | COCc1cc(=O)n(CC(=O)Nc2ccc(C)cc2C)c(N2CCOCC2)n1
18 | 780 s | Cc1ccc(NC(=O)N2CCC(N3CCN(Cc4ccccc4)C(=O)C3=O)CC2)cc1C
19 | 922 s | O=C([C@@H]1C[C@H](Oc2ccccc2)CN1C(=O)CCC1CCCC1)N1CCCC1
20 | 789 s | Cc1cc(N2CCN(C(=O)Nc3cccc(C(F)(F)F)c3)CC2)nc(N2CCCCC2)n1
21 | 1030 s | Cc1ccccc1-c1nn2c(CSc3ccccc3)nnc2s1
22 | 696 s | N#CC1=C(SCC(=O)Nc2nccs2)NC(=O)CC1c1ccccc1F (centres undefined)

Row | RP-LC retention time | Structure (SMILES)
23 | 714 s | Cc1nn(C)c(C)c1S(=O)(=O)N1CCc2nn(Cc3ccccc3)c(=O)n2CC1
24 | 986 s | Cc1ccc(-c2nnc(-c3cccc(S(=O)(=O)N(C)C)c3)o2)cc1
25 | 734 s | Cc1ccc(F)cc1S(=O)(=O)N1CCC(n2cnnc2C2CC2)CC1
26 | 717 s | COc1ccccc1N1CCN(C(=O)C2CCN(C(=O)C3Sc4ccccc4NC3=O)CC2)CC1 (centres undefined)
27 | 828 s | O=C(Cn1nc2c3sc(N4CCCCC4)nc3ncn2c1=O)Nc1cc(F)cc(F)c1
28 | 755 s | O=C(CN1C(=O)c2ccccc2C1=O)N1CCc2ccccc2C1
29 | 638 s | CC(C)n1cnc2cc(CNC(=O)c3cc(F)ccc3Cl)ccc21
30 | 886 s | Cc1ccc(C(=O)Nc2ccc3c(c2)Sc2ncccc2C(=O)N3C(C)C)s1
31 | 691 s | CSc1cccc(NC(=O)CCc2c(-c3ccccc3)nc3ccccn23)c1
32 | 621 s | Fc1ccc(-c2nc(CC3CCNC3)no2)cc1 (centres undefined)
33 | 873 s | CCOc1cccc(CNc2c(C(=O)OC)c(=O)[nH]c3c(Cl)cccc23)c1
34 | 586 s | Cc1ccc2nc(C)cc(C(=O)NC3CC3)c2c1
35 | 709 s | O=C(NC1CCCCCC1)c1nc(-c2ccnc(N3CCCC3)c2)no1
36 | 869 s | COc1cccc(Cn2c(N3CCSCC3)nc(C)cc2=O)c1
37 | 811 s | CSc1ccc(N2C(C)=NS(=O)(=O)c3cccnc32)cc1
38 | 850 s | COc1ccccc1CCN1CC(=O)N(c2cccc(C)c2)[C@@H]2CS(=O)(=O)C[C@@H]21
39 | 882 s | O=C(Nc1ccc2c(c1)OCO2)Nc1ccc2c(c1)N(C(=O)c1ccccc1)CC2
40 | 739 s | O=C(Nc1cccc(-c2cn3cccnc3n2)c1)c1ccc(Cl)cc1
41 | 662 s | Cn1cc(S(=O)(=O)N2CCC(C(=O)Nc3nccs3)CC2)cc1C(=O)N1CCCC1
42 | 860 s | Cc1cc(C(=O)NCc2ccco2)c2c(C)nn(-c3ccccc3Cl)c2n1
43 | 575 s | CCc1ccccc1NC(=O)N1CCc2nc[nH]c2C1
44 | 692 s | O=C(O)c1cc(=O)c2cc(Cl)ccc2[nH]1

Row | RP-LC retention time | Structure (SMILES)
45 | 635 s | Cc1ccc2nc3sc(C(=O)Nc4c(C)n(C)n(-c5ccccc5)c4=O)cc3c(=O)n2c1
46 | 733 s | CCc1c(C)nc2ncnn2c1N1CCCC1
47 | 587 s | COc1cccc(NC(=O)Nc2ccc3nc(N4CCN(C)CC4)cc(C)c3c2)c1
48 | 1040 s | Cc1ccc(-c2nnc(-c3ccc(Cl)c(S(=O)(=O)N(C)C)c3)o2)cc1
49 | 819 s | CCN(c1ccccc1C)S(=O)(=O)c1cc(-c2[nH]ncc2C(=O)N2CCCC2)oc1C
50 | 738 s | CSc1ccccc1C(=O)Nc1ccc(CC(=O)NCC(F)(F)F)cc1
51 | 762 s | Cn1cnc(S(=O)(=O)N2CCC(C(=O)Nc3ccc(F)c(Cl)c3)CC2)c1
52 | 932 s | CCc1cccc(NC(=O)C2CCN(S(=O)(=O)c3ccc4c(c3)sc(=O)n4CC)CC2)c1
53 | 697 s | CC1=C(c2ccccc2)S(=O)(=O)N=C1N1CCCN(C(=O)c2ccccc2)CC1
54 | 1180 s | COc1cccc(N2CCN(C(=O)c3cc4c(-c5cccs5)nn(-c5ccccc5)c4n3C)CC2)c1
55 | 750 s | CN(C)CCCOc1nn(Cc2ccccc2)c2ccccc12
56 | 556 s | COc1cc2ncc(C(=O)c3ccccc3)c(N3CCN(C)CC3)c2cc1OC
57 | 727 s | CCOc1ccccc1CN1C[C@@H]2C(=O)N(Cc3ccc4c(c3)OCO4)C(=O)[C@@H]2C1
58 | 1150 s | Cc1ccc(-c2noc(-c3ccc(=O)n(Cc4cccc(F)c4)n3)n2)cc1
59 | 734 s | CC1CCC(C(=O)Nc2ccc(-c3nnc4n3CCCC4)cc2)CC1 (centres undefined)
60 | 630 s | NC(=O)c1cccc2cn(-c3ccc([C@@H]4CCCNC4)cc3)nc12
61 | 842 s | CC(C)c1ccc(-n2nc(N3CCN(C(=O)c4ccco4)CC3)ccc2=O)cc1
62 | 565 s | CCCn1c(C)cnc1C1CN(S(=O)(=O)c2ccccc2)C1
63 | 555 s | c1ccc(CNc2nc(-c3ccncc3)nc3c2CCC3)nc1
64 | 1010 s | CCc1nc(-c2csc(S(=O)(=O)N3CCC(C(=O)Nc4ccccc4CC)CC3)c2)no1
65 | 804 s | Cc1ccc(C(C)NC(=O)CN2C(=O)NC3(CCCCC3)C2=O)cc1 (centres undefined)
66 | 930 s | COC(=O)c1cc(S(=O)(=O)N2CCCC2C(=O)Nc2c(Cl)cc(OC)cc2OC)cn1C (centres undefined)

Row | RP-LC retention time | Structure (SMILES)
67 | 863 s | O=C(CN1C(=O)CC(c2ccccc2)S(=O)(=O)c2ccccc21)Nc1cccc(F)c1 (centres undefined)
68 | 791 s | CC(C)c1nncn1C1CCN(S(=O)(=O)c2ccc(C(F)(F)F)cc2)CC1
69 | 692 s | COc1ccccc1NC(=O)Nc1c(-c2ccc(F)cc2)nc2ccccn12
70 | 772 s | CCC(C)NS(=O)(=O)c1ccc(-c2n[nH]c(C)c2C)o1 (centres undefined)
71 | 1060 s | Cc1csc(-c2cc(S(=O)(=O)Nc3cccc(Cl)c3)c(C)s2)n1
72 | 1130 s | Cc1cc(C)cc(C(=O)N2c3ccccc3CC2c2nc(C3CC3)no2)c1 (centres undefined)
73 | 566 s | Cc1nc2ccc(C(=O)NC3CCN(C)CC3)cc2nc1C
74 | 892 s | COc1ccccc1CNC(=O)C1CCCN(S(=O)(=O)c2cc(-c3noc(C)n3)cs2)C1 (centres undefined)
75 | 793 s | Cc1cc(C)c(CNC(=O)C2CCN(c3cnc4nccnc4c3)CC2)c(C)c1
76 | 860 s | COc1ccc(NC(=O)C2CCN(c3nc4ccc(-c5cncnc5)nc4s3)CC2)cc1
77 | 1000 s | Cc1nc(N2CCOCC2)c2c(C(=O)N3CCN(c4cccc(C)c4C)CC3)c(C)oc2n1
78 | 652 s | Cc1ccn2cc(-c3ccc(NC(=O)c4ccccc4Cl)cc3)nc2n1
79 | 950 s | COc1ccc(NS(=O)(=O)c2cn(CC(C)C)c3ncccc23)cc1Cl
80 | 621 s | Cc1ccccc1Cn1cc(-c2ccncc2)cc1C(=O)N1CCOCC1
81 | 710 s | O=C(NC1CCCCC1)C1CCN(S(=O)(=O)c2cc(C(=O)N3CCOCC3)cs2)CC1
82 | 760 s | Nc1nc(Nc2ccc3c(c2)CC[C@@H](N2CCCC2)CC3)nn1-c1cc2c(nn1)-c1ccccc1CCC2
83 | 710 s | CC(C)NC(=O)C1CCN(Cc2cc3ccccc3n2Cc2ccccc2)CC1
84 | 972 s | COc1ccccc1-n1nnc(C(=O)OCc2nc(-c3ccccc3)oc2C)c1C
85 | 959 s | Cc1cc(NC(=O)Cn2c(=O)cc(-c3nc(C(C)C)no3)c3ccccc32)ccc1F
86 | 851 s | CC1CCC(NC(=O)CCn2nc(C(=O)N3c4ccccc4CC3C)ccc2=O)CC1 (centres undefined)
87 | 770 s | Nc1c(C(=O)NCC2CC2)nsc1C(=O)O
88 | 985 s | Cn1nnc2ccc(-c3noc(-c4ccccc4)n3)cc21

Row | Structure (SMILES) | RP-LC retention time
89 | COc1ccc(CNCCc2c(C)[nH]c3ccc(F)cc23)cc1OC | 571 s
